Reference: ChEMBL document CHEMBL1649268, “Comparative in vitro activity profile of oritavancin against recent gram-positive clinical isolates” (2009)
In brackets after ≈: the same amount, converted by molar mass.

What was measured:
Type in all cases: functional
[1] = test system: Staphylococcus haemolyticus; test: Antimicrobial activity against oxacillin-resistant Staphylococcus haemolyticus clinical isolates assessed as percent susceptible isolates by broth microdilution method
[2] = test system: Staphylococcus haemolyticus; test: Antimicrobial activity against oxacillin-susceptible Staphylococcus haemolyticus clinical isolates assessed as percent susceptible isolates by broth microdilution method
[3] = test system: Staphylococcus haemolyticus; test: Antimicrobial activity against Staphylococcus haemolyticus clinical isolates assessed as percent susceptible isolates by broth microdilution method
[4] = test system: Staphylococcus epidermidis; test: Antimicrobial activity against oxacillin-resistant Staphylococcus epidermidis clinical isolates assessed as percent susceptible isolates by broth microdilution method
[5] = test system: Staphylococcus epidermidis; test: Antimicrobial activity against oxacillin-susceptible Staphylococcus epidermidis clinical isolates assessed as percent susceptible isolates by broth microdilution method
[6] = test system: Staphylococcus epidermidis; test: Antimicrobial activity against Staphylococcus epidermidis clinical isolates assessed as percent susceptible isolates by broth microdilution method
Staphylococcus aureus [7] = test: Antimicrobial activity against oxacillin-resistant Staphylococcus aureus clinical isolates assessed as percent susceptible isolates by broth microdilution method
Staphylococcus aureus [8] = test: Antimicrobial activity against oxacillin-susceptible Staphylococcus aureus clinical isolates assessed as percent susceptible isolates by broth microdilution method
Staphylococcus aureus [9] = test: Antimicrobial activity against Staphylococcus aureus clinical isolates assessed as percent susceptible isolates by broth microdilution method
[10] = test system: Staphylococcus haemolyticus; test: Antimicrobial activity against oxacillin-resistant Staphylococcus haemolyticus clinical isolates assessed as resistant isolates by broth microdilution method
[11] = test system: Staphylococcus haemolyticus; test: Antimicrobial activity against oxacillin-susceptible Staphylococcus haemolyticus clinical isolates assessed as resistant isolates by broth microdilution method
[12] = test system: Staphylococcus haemolyticus; test: Antimicrobial activity against Staphylococcus haemolyticus clinical isolates assessed as resistant isolates by broth microdilution method
[13] = test system: Staphylococcus epidermidis; test: Antimicrobial activity against oxacillin-resistant Staphylococcus epidermidis clinical isolates assessed as resistant isolates by broth microdilution method
[14] = test system: Staphylococcus epidermidis; test: Antimicrobial activity against oxacillin-susceptible Staphylococcus epidermidis clinical isolates assessed as resistant isolates by broth microdilution method
[15] = test system: Staphylococcus epidermidis; test: Antimicrobial activity against Staphylococcus epidermidis clinical isolates assessed as resistant isolates by broth microdilution method
Staphylococcus aureus [16] = test: Antimicrobial activity against oxacillin-resistant Staphylococcus aureus clinical isolates assessed as resistant isolates by broth microdilution method
Staphylococcus aureus [17] = test: Antimicrobial activity against oxacillin-susceptible Staphylococcus aureus clinical isolates assessed as resistant isolates by broth microdilution method
Staphylococcus aureus [18] = test: Antimicrobial activity against Staphylococcus aureus clinical isolates assessed as resistant isolates by broth microdilution method
[19] = test system: Staphylococcus haemolyticus; test: Antimicrobial activity against oxacillin-resistant Staphylococcus haemolyticus clinical isolates by broth microdilution method
[20] = test system: Staphylococcus haemolyticus; test: Antimicrobial activity against oxacillin-susceptible Staphylococcus haemolyticus clinical isolates by broth microdilution method
[21] = test system: Staphylococcus haemolyticus; test: Antimicrobial activity against Staphylococcus haemolyticus clinical isolates by broth microdilution method
[22] = test system: Staphylococcus epidermidis; test: Antimicrobial activity against oxacillin-resistant Staphylococcus epidermidis clinical isolates by broth microdilution method
[23] = test system: Staphylococcus epidermidis; test: Antimicrobial activity against oxacillin-susceptible Staphylococcus epidermidis clinical isolates by broth microdilution method
[24] = test system: Staphylococcus epidermidis; test: Antimicrobial activity against Staphylococcus epidermidis clinical isolates by broth microdilution method
Staphylococcus aureus [25] = test: Antimicrobial activity against oxacillin-resistant Staphylococcus aureus clinical isolates by broth microdilution method
Staphylococcus aureus [26] = test: Antimicrobial activity against oxacillin-susceptible Staphylococcus aureus clinical isolates by broth microdilution method
Staphylococcus aureus [27] = test: Antimicrobial activity against Staphylococcus aureus clinical isolates by broth microdilution method

In the case of Cc1onc(-c2ccccc2)c1C(=O)N[C@@H]1C(=O)N2[C@@H]1SC(C)(C)[C@@H]2C(=O)O [OXACILLIN], the Activity [1] is reported as 0%, the Activity [2] is reported as 100% and the Activity [3] is reported as 26.8%. It also gave an Activity [4] of 0%, an Activity [5] of 100% and an Activity [6] of 27.3%. The Activity (Staphylococcus aureus [7]) was 0%, the Activity (Staphylococcus aureus [8]) was 100% and the Activity (Staphylococcus aureus [9]) was 46.2%. The Activity [10] was 100%, the Activity [11] was 0% and the Resistant isolates [12] was 73.2%. For the same compound, the “Percent of isolates resistant” value [13] was 100%, the “Percent of isolates resistant” value [14] was 0% and the “Percent of isolates resistant” value [15] was 72.7%. For the same compound, the Percent resistant isolates (Staphylococcus aureus [16]) was 100%, the “Percent of isolates resistant” value (Staphylococcus aureus [17]) was 0% and the Percent resistant isolates (Staphylococcus aureus [18]) was 53.8%. It also gave an MIC90 [19] of over 8 µg/mL, an MIC90 [20] of 0.25 µg/mL (≈ 0.623 µM) and an MIC90 [21] of over 8 µg/mL. For the same compound, the MIC90 [22] was over 8 µg/mL, the MIC90 [23] was 0.12 µg/mL (≈ 0.299 µM) and the MIC90 [24] was over 8 µg/mL. For the same compound, the MIC90 (Staphylococcus aureus [25]) was over 8 µg/mL, the MIC90 (Staphylococcus aureus [26]) was 0.5 µg/mL (≈ 1.25 µM) and the MIC90 (Staphylococcus aureus [27]) was over 8 µg/mL.
